Laboratory results published in article doi:10.1101/2025.06.30.662286v4 (biorxiv, 2026).
Like-named read-outs stand apart in the source and are kept apart here.

Tests used:
[1] = target: sc-apCC-6-DPH-NR (P, promiscuous binder); assay: fluorescence saturation binding; set-up: species or system synthetic construct; conditions: PBS pH 7.4, 10% v/v MeCN, 0.5 μM ligand, 0-60 μM protein
[2] = target: sc-apCC-4-DPH (highest-affinity DPH binder of Fig. 2; sc-apCC-4-DPH-1 or sc-apCC-4-DPH-2); assay: fluorescence intensity saturation binding; set-up: species or system synthetic construct; conditions: PBS pH 7.4, 10% v/v MeCN, 0.5 μM DPH, 0-60 μM protein
[3] = target: sc-apCC-6-NR (S, specific binder); assay: fluorescence saturation binding; set-up: species or system synthetic construct; conditions: PBS pH 7.4, 10% v/v MeCN, 0.5 μM ligand, 0-60 μM protein
sc-apCC-4-SN38-1 [4] = assay: fluorescence saturation binding; set-up: species or system synthetic construct
sc-apCC-4-NR-1 = assay: fluorescence intensity saturation binding; set-up: species or system synthetic construct; conditions: PBS pH 7.4, 10% v/v MeCN, 0.5 μM Nile red, 0-60 μM protein
sc-apCC-4-LMF-1 = conditions: PBS pH 7.4, 10% v/v DMSO, 1 μM lumiflavin, 0-480 μM protein
sc-apCC-4-SN38-1 [5] = assay: fluorescence saturation binding; set-up: species or system synthetic construct; conditions: ABS pH 4, 10% v/v DMSO, 1 μM SN38, 0-480 μM protein

Q: What does the source list for `C(=CC=Cc1ccccc1)C=Cc1ccccc1` [DPH, 1,6-diphenyl-1,3,5-hexatriene]?
A: Kd [1]: 1.9 ± 0.2 µM; Kd [2]: 1.2 ± 0.1 µM; Kd [3]: > 20 µM

Q: `CCN(CC)c1ccc2nc3c4ccccc4c(=N)cc-3oc2c1` [Nile blue] was tested. Which Kd (sc-apCC-4-SN38-1 [4]; read-out: KD,Nile blue) did it give?
A: ~0.4 µM

Q: What does the source list for `CCN(CC)c1ccc2nc3c4ccccc4c(=O)cc-3oc2c1` [Nile red]?
A: Kd (sc-apCC-4-SN38-1 [4]; read-out: KD,Nile Red): ~0.2 µM; Kd [1]: 2.2 ± 0.2 µM; Kd (sc-apCC-4-NR-1): 2.4 ± 0.1 µM; Kd [3]: 0.11 ± 0.04 µM

Q: Which Kd (sc-apCC-4-LMF-1) does the source give for `Cc1cc2nc3c(=O)[nH]c(=O)nc-3n(C)c2cc1C` [lumiflavin] here?
A: > 50 µM

Q: How did the Kd (sc-apCC-4-SN38-1 [5]) turn out when `CCc1c2c(nc3ccc(O)cc13)-c1cc3c(c(=O)n1C2)COC(=O)[C@]3(O)CC` [SN38] was run?
A: 7.8 ± 0.6 µM
